Tests used:
U-2 OS spheroids = experiment: 3D spheroid viability; type: cell-based, human; conditions: 2.5, 5 and 10 µM single dose, 7 days
Experimental: (§1) U-2 OS cells were seeded at 5000 cells per well and HCT116 at 1500 cells per well, in 96-well black ULA plates (Ultra Low Adherence, Corning). After centrifugation at 200 g for 10 min, spheroids were incubated at 37 °C for 3 days in order to reach 400 µm in diameter. Compounds were then added at a single dose (2.5, 5, or 10 μM) and cell viability was measured after 7 days using the CellTiter-Glo® 3D Cell Viability Assay (Promega) following the manufacturer's protocol. Luminescence was measured using an EnVision® plate reader (Perkin Elmer).

HCT116 spheroids = experiment: 3D spheroid viability; type: cell-based, human; conditions: 2.5, 5 and 10 µM single dose, 7 days
Experimental: as §1

RPE1 cell line = experiment: Cell viability MTS assay, dose-response; type: cell-based; conditions: Homo sapiens, RPE-1; 48 h, MTS assay in triplicate, doses up to 50 µM
Experimental: HCT116 cells were cultured in McCoy’s medium. SH-SY5Y, MDA-MB231 and U-2 OS cells were cultured in Dulbecco's modified Eagle's medium (DMEM) and hTERT RPE-1 cells in DMEM:F12 medium. All media were supplemented with 10% foetal calf serum and cells were cultured at 37 °C in a 5% CO2 humidified atmosphere.
Cell viability was then assessed using the CellTiter96 AQueous cell proliferation assay from Promega according to the manufacturer’s instructions. Each experiment was done in triplicate and EC50 were determined from the dose-response curves according to the signal given by the control (0.1% DMSO) set at 100% viability using Prism GraphPad software.

AMPK (A1/B1/G3) = biological target: T1, AMPK (A1/B1/G3) (Homo sapiens, UniProt Q13131); experiment: LanthaScreen Binding - Eu-anti-His; conditions: read-out: Percentage of inhibition
T1 construct: purchased Life Technologies (SelectScreen service)
Experimental: (§2) We further evaluated the selectivity profile of compound 55 on a larger panel of kinases (SelectScreen Whole Panel, Life Technologies). The inhibition profile of 55, evaluated at 1 μM, is depicted on a dendrogram on Figure 3 where kinases inhibited by a minimum of 80% are shown. A full list of the kinases tested is shown on Table S1 in supplementary information.

CDK8/cyclin C = biological target: T2, CDK8/cyclin C (Homo sapiens, UniProt P49336); experiment: LanthaScreen Binding - Eu-anti-His; conditions: read-out: Percentage of inhibition
T2 construct: purchased Life Technologies
Experimental: as §2

TEC = biological target: T3, TEC (Homo sapiens, UniProt P42680); experiment: LanthaScreen Binding - Eu-anti-His; conditions: read-out: Percentage of inhibition
T3 construct: purchased Life Technologies
Experimental: as §2

KIT V654A = biological target: T4, KIT V654A (Homo sapiens, UniProt P10721, V654A); experiment: LanthaScreen Binding - Eu-anti-His; conditions: read-out: Percentage of inhibition
T4 construct: purchased Life Technologies (SelectScreen service)
Experimental: as §2

CAMKK1 (CAMKKA) = biological target: T5, CAMKK1 (CAMKKA) (Homo sapiens, UniProt Q8N5S9); experiment: LanthaScreen Binding - Eu-anti-His; conditions: read-out: Percentage of inhibition
T5 construct: purchased Life Technologies (SelectScreen)
Experimental: as §2

MAPK8 (JNK1) = biological target: T6, MAPK8 (JNK1) (Homo sapiens, UniProt P45983); experiment: LanthaScreen Binding - Eu-anti-His; conditions: read-out: Percentage of inhibition
T6 construct: purchased Life Technologies (SelectScreen Whole Panel service)
Experimental: as §2

BMPR2 = biological target: T7, BMPR2 (Homo sapiens, UniProt Q13873); experiment: LanthaScreen Binding - Eu-anti-His; conditions: read-out: Percentage of inhibition
T7 construct: purchased Life Technologies (SelectScreen Whole Panel)
Experimental: as §2

LIMK1 = biological target: T8, LIMK1 (Homo sapiens, UniProt P53667); experiment: LanthaScreen Binding - Eu-anti-His; conditions: read-out: Percentage of inhibition
T8 construct: purchased Life Technologies (SelectScreen service)
Experimental: as §2

[1] = biological target: T9, MAP2K6 (MKK6) S207E T211E (Homo sapiens, UniProt P52564, S207E/T211E); experiment: LanthaScreen Binding - Eu-anti-His; conditions: read-out: Percentage of inhibition
T9 construct: purchased Life Technologies (SelectScreen Whole Panel service)
Experimental: as §2

EPHA3 = EPHA3 (Homo sapiens, UniProt P29320); experiment: LanthaScreen Binding - Eu-anti-His; conditions: read-out: Percentage of inhibition
Experimental: as §2

CDK9/cyclin K = CDK9/cyclin K (Homo sapiens, UniProt P50750); experiment: LanthaScreen Binding - Eu-anti-His; conditions: read-out: Percentage of inhibition
Experimental: as §2

AMPK (A1/B1/G2) = biological target: T10, AMPK (A1/B1/G2) (Homo sapiens, UniProt Q13131); experiment: LanthaScreen Binding - Eu-anti-His; conditions: read-out: Percentage of inhibition
T10 construct: purchased Life Technologies (SelectScreen service)
Experimental: as §2

WNK3 = biological target: T11, WNK3 (Homo sapiens, UniProt Q9BYP7); experiment: LanthaScreen Binding - Eu-anti-His; conditions: read-out: Percentage of inhibition
T11 construct: purchased Life Technologies (SelectScreen Whole Panel)
Experimental: as §2

AMPK (A2/B2/G2) = biological target: T12, AMPK (A2/B2/G2) (Homo sapiens, UniProt P54646); experiment: LanthaScreen Binding - Eu-anti-His; conditions: read-out: Percentage of inhibition
T12 construct: purchased Life Technologies (SelectScreen service)
Experimental: as §2

AMPK (A2/B2/G1) = biological target: T13, AMPK (A2/B2/G1) (Homo sapiens, UniProt P54646); experiment: LanthaScreen Binding - Eu-anti-His; conditions: read-out: Percentage of inhibition
T13 construct: purchased Life Technologies (SelectScreen service)
Experimental: as §2

RIPK2 = RIPK2 (Homo sapiens, UniProt O43353); experiment: LanthaScreen Binding - Eu-anti-His; conditions: read-out: Percentage of inhibition
Experimental: as §2

MAPK9 (JNK2) = biological target: T14, MAPK9 (JNK2) (Homo sapiens, UniProt P45984); experiment: LanthaScreen Binding - Eu-anti-His; conditions: read-out: Percentage of inhibition
T14 construct: purchased Life Technologies (SelectScreen service)
Experimental: as §2

WNK1 = WNK1 (Homo sapiens, UniProt Q9H4A3); experiment: LanthaScreen Binding - Eu-anti-His; conditions: read-out: Percentage of inhibition
Experimental: as §2

MAP2K6 (MKK6) = biological target: T15, MAP2K6 (MKK6) (Homo sapiens, UniProt P52564); experiment: LanthaScreen Binding - Eu-anti-His; conditions: read-out: Percentage of inhibition
T15 construct: purchased Life Technologies (SelectScreen Whole Panel service)
Experimental: as §2

MAP2K2 (MEK2) = biological target: T16, MAP2K2 (MEK2) (Homo sapiens, UniProt P36507); experiment: LanthaScreen Binding - Eu-anti-His; conditions: read-out: Percentage of inhibition
T16 construct: purchased Life Technologies
Experimental: as §2

STK16 (PKL12) = biological target: T17, STK16 (PKL12) (Homo sapiens, UniProt O75716); experiment: LanthaScreen Binding - Eu-anti-His; conditions: read-out: Percentage of inhibition
T17 construct: purchased Life Technologies (SelectScreen Whole Panel)
Experimental: as §2

[2] = biological target: T18, MAP2K1 (MEK1) S218D S222D (Homo sapiens, UniProt Q02750, S218D/S222D); experiment: LanthaScreen Binding - Eu-anti-His; conditions: read-out: Percentage of inhibition
T18 construct: purchased Life Technologies (SelectScreen Whole Panel)
Experimental: as §2

AMPK (A1/B2/G1) = biological target: T19, AMPK (A1/B2/G1) (Homo sapiens, UniProt Q13131); experiment: LanthaScreen Binding - Eu-anti-His; conditions: read-out: Percentage of inhibition
T19 construct: purchased Life Technologies (SelectScreen service)
Experimental: as §2

CLK4 = biological target: T20, CLK4 (Homo sapiens, UniProt Q9HAZ1); experiment: LanthaScreen Binding - Eu-anti-His; conditions: read-out: Percentage of inhibition
T20 construct: purchased Life Technologies (SelectScreen Whole Panel)
Experimental: as §2

RnDYRK1A = RnDYRK1A (Rattus norvegicus, UniProt Q63470); experiment: ADP-Glo kinase assay; type: biochemical, Rattus norvegicus (Rn)
Experimental: Kinase activities were determined using the ADP-Glo methodology (ADP-Glo Kinase Assay; Promega) according to the assay described by Nguyen et al.[32] except for MmCLK1. The later was assayed in the following buffer: 10 mM MgCl2, 1 mM EGTA, 1 mM DTT, 25 mM Tris-HCl pH 7.5, 50 µg/ml heparin, 0.15 mg/ml BSA, with 0.027 µg/µl of the following peptide: GRSRSRSRSRSR as substrate.

T4 sequence (P10721 26-976 V654A): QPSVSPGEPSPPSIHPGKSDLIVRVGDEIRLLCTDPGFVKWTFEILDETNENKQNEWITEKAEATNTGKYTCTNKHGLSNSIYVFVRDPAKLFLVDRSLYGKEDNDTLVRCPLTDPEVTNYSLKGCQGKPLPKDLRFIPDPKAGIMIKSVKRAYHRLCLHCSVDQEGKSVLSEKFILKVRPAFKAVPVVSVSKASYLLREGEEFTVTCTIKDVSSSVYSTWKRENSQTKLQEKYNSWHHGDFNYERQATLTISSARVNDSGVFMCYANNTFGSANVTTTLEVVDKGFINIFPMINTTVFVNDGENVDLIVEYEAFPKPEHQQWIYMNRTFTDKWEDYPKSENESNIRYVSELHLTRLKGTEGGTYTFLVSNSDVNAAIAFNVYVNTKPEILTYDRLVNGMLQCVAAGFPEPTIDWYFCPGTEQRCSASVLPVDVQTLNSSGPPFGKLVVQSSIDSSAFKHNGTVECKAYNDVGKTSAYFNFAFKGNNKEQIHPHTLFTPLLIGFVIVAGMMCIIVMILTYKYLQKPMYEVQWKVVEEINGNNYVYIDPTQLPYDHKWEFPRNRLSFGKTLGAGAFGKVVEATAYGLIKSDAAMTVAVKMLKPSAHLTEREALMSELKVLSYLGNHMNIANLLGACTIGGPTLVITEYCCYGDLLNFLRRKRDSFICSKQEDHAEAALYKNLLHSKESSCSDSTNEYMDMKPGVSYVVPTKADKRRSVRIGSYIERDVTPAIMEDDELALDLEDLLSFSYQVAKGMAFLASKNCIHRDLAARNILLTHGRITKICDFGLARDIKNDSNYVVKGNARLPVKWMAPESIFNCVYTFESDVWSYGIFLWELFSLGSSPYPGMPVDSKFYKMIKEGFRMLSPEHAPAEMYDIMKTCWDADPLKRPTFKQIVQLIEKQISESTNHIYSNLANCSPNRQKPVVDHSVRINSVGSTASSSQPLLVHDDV
CDK9/cyclin K, sequence (P50750 whole entry): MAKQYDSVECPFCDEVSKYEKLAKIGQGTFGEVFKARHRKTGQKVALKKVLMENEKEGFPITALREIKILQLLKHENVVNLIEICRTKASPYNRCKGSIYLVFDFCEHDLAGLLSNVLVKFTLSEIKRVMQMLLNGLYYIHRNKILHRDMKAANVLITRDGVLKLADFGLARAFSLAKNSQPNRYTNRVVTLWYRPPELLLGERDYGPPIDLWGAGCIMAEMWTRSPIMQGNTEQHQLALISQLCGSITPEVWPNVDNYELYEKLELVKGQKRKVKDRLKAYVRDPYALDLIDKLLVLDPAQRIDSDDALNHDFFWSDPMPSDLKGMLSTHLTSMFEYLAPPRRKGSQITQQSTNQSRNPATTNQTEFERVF
CDK9/cyclin K, sequence (O75909 whole entry partner): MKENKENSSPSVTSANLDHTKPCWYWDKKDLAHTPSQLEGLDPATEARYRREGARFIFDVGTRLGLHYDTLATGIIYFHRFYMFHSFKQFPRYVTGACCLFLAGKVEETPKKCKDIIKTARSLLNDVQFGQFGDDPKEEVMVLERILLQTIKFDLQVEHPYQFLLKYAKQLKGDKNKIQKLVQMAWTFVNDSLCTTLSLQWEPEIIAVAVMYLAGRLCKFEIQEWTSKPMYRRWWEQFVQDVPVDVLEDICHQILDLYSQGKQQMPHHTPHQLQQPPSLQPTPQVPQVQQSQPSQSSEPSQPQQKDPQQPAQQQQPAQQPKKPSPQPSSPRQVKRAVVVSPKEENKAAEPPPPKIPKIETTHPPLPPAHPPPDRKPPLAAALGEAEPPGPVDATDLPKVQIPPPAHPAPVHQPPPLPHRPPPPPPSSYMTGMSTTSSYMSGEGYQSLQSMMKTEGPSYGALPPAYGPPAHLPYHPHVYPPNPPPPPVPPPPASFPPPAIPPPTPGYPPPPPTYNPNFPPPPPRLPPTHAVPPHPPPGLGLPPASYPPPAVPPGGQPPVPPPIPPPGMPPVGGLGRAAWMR
T8 sequence (P53667 whole entry): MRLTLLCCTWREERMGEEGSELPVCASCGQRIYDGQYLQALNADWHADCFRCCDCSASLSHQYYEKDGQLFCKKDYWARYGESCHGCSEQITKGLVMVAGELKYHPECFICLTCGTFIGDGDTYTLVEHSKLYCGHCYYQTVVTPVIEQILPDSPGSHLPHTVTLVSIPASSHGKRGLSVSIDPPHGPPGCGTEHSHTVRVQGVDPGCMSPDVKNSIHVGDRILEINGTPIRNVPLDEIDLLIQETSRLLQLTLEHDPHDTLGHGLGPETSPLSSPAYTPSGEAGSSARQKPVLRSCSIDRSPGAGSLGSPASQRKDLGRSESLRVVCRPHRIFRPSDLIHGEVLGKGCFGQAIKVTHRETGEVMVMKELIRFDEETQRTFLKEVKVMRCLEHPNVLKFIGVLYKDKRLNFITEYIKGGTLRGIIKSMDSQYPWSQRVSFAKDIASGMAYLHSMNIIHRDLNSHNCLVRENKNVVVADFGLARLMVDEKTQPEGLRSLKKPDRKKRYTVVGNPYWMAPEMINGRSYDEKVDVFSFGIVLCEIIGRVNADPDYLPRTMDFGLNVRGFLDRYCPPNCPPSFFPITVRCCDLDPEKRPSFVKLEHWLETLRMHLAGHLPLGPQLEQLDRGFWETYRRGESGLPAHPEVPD
T11 sequence (Q9BYP7 whole entry): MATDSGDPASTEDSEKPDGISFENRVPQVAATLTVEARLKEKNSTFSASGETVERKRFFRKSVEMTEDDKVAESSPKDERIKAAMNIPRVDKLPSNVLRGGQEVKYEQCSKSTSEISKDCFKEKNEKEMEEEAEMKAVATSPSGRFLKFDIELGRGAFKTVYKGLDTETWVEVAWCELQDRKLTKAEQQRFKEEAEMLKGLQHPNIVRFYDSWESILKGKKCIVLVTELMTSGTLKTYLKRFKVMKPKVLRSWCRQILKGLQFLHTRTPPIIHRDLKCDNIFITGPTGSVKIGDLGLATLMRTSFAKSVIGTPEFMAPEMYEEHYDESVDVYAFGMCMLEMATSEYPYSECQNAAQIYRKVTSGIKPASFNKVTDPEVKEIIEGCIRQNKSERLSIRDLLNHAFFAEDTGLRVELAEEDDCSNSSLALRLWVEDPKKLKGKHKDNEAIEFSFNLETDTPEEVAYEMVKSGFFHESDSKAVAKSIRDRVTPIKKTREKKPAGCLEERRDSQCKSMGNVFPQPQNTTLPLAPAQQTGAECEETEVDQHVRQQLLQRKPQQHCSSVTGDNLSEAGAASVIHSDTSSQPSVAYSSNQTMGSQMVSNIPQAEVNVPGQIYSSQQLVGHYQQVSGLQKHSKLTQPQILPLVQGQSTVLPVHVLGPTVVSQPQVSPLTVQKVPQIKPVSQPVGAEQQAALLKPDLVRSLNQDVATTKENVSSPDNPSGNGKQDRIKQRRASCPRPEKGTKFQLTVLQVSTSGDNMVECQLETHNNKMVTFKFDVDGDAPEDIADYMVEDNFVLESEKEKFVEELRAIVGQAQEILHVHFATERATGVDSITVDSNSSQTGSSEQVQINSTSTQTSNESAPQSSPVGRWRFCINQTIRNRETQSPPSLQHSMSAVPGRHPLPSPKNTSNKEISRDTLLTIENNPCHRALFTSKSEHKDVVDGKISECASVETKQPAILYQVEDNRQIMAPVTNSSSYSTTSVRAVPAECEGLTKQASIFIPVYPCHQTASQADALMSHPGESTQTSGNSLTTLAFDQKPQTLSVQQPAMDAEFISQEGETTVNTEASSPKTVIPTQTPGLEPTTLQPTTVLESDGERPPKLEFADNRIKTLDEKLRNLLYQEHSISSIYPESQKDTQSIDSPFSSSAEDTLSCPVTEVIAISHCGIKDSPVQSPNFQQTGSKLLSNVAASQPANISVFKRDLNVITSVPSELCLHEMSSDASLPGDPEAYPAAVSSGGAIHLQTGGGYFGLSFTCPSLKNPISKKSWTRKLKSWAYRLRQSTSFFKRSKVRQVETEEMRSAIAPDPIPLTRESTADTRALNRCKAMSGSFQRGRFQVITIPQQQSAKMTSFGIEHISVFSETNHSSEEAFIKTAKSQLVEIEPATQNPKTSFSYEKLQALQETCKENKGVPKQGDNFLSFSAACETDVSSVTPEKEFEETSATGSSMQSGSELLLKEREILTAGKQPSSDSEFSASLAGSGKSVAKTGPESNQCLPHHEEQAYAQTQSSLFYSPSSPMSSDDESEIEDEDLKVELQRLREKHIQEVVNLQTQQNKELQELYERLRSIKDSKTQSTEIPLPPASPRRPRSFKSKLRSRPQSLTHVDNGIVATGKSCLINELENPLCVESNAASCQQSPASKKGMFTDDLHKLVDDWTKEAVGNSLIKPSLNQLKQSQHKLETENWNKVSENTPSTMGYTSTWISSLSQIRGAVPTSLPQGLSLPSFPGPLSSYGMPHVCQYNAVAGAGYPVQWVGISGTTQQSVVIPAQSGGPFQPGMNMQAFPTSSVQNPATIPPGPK
T3 sequence (P42680 whole entry): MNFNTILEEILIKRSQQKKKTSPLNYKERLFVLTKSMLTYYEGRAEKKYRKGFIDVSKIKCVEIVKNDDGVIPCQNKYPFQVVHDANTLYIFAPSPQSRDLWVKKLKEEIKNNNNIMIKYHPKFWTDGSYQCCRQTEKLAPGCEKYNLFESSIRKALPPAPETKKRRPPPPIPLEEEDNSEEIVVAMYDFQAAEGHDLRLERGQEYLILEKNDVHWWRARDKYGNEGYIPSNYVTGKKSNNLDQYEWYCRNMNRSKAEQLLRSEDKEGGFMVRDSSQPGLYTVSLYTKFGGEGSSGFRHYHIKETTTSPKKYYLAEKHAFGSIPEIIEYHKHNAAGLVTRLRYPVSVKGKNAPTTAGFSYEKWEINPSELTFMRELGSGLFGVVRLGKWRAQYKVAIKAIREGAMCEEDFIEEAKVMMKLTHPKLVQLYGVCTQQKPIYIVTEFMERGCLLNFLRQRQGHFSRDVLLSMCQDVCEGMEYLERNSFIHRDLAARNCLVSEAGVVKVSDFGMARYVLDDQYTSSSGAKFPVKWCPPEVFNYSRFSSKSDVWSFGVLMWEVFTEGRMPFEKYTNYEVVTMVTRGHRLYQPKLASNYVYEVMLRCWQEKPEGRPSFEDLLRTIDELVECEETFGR

For `COc1ccc2[nH]c3c(=O)[nH]c4ccc(O)cc4c3c2c1` [Compound 55, 2-Hydroxy-10-methoxy-5,7-dihydro-6H-indolo[2,3-c]quinolin-6-one], the “U-2 OS spheroid cell viability” value (U-2 OS spheroids) was “marked dose-dependent effect”, the “HCT116 spheroid cell viability” value (HCT116 spheroids) was “marked dose-dependent effect” and the EC50 (RPE1 cell line) was 10.7 µM. For the same compound, the inhibition at 1 µM (AMPK (A1/B1/G3)) was 82%, the inhibition at 1 µM (CDK8/cyclin C) was 40% and the inhibition at 1 µM (TEC) was 4%. For the same compound, the inhibition at 1 µM (KIT V654A) was 25%, the inhibition at 1 µM (CAMKK1 (CAMKKA)) was 8% and the inhibition at 1 µM (MAPK8 (JNK1)) was 43%. The inhibition at 1 µM (BMPR2) was 116%, the inhibition at 1 µM (LIMK1) was 23% and the inhibition at 1 µM [1] was 18%. For the same compound, the inhibition at 1 µM (EPHA3) was 13%, the inhibition at 1 µM (CDK9/cyclin K) was 59% and the inhibition at 1 µM (AMPK (A1/B1/G2)) was 81%. The inhibition at 1 µM (WNK3) was 2%, the inhibition at 1 µM (AMPK (A2/B2/G2)) was 80% and the inhibition at 1 µM (AMPK (A2/B2/G1)) was 70%. The inhibition at 1 µM (RIPK2) was 13%, the inhibition at 1 µM (MAPK9 (JNK2)) was 25% and the inhibition at 1 µM (WNK1) was 7%. The inhibition at 1 µM (MAP2K6 (MKK6)) was 2%, the inhibition at 1 µM (MAP2K2 (MEK2)) was 94% and the inhibition at 1 µM (STK16 (PKL12)) was 51%. For the same compound, the inhibition at 1 µM [2] was 98%, the inhibition at 1 µM (AMPK (A1/B2/G1)) was 86% and the inhibition at 1 µM (CLK4) was 100%. The “Selectivity index DYRK/Haspin” value (RnDYRK1A; IC50 DYRK1A/IC50 Haspin) was 65, the IC50 (RnDYRK1A; dose-response curve, each point in duplicate, read-out: Kinase inhibition (IC50) DYRK1A) was 0.13 µM and the remaining activity (RnDYRK1A; mean n = 2, % of maximum activity of DMSO control, read-out: % Residual activity at 1 μM DYRK1A) was 2%.

From article PMC9186362, “Design and biological evaluation of substituted 5,7-dihydro-6H-indolo[2,3-c]quinolin-6-one as novel selective Haspin inhibitors” (Journal of Enzyme Inhibition and Medicinal Chemistry, 2022)
